Measured values reported in patent US20220062218A1, “COMPOSITIONS AND METHODS FOR TREATING DIABETES” (ENZYCHEM LIFESCIENCES, priority 2019, published 2022).
“Also recorded” adds a separate entry of the source.

Tests used:
INS-1 cells = test: STZ-induced cell apoptosis in INS-1 cells, flow cytometry with annexin-V and 7-AAD; assay type: cell-based, rat; conditions: STZ-treated cells
Protocol: The effect of PLAG on STZ-induced cell apoptosis was analyzed using flow cytometry using annexin-V and 7-AAD dye (FIGS. 2A and 2B). Cells were collected by trypsinization and washed with PBS. For cell apoptosis analyses, INS-1 cells were incubated with annexin V (BD Biosciences, Franklin Lakes, N.J., USA) for 10 min at room temperature, and stained with 7-AAD (BD Biosciences). Analysis was performed using a BD FACSVerse flow cytometer (BD Biosciences). The annexin-V and 7-AAD dyes are dyes that label apoptosis, one kind of cell death.
After treatment with PLAG and PLH(1-palmitoyl-2-linoleoyl-3-hydroxyl-rac-glycerol), apoptosis, intracellular ROS generation and glucose uptake were analyzed by flow cytometry (FIG. 7-B to 7-E). In addition, expression of GLUT2 in membrane fractions was analyzed by Western blotting (FIG.7-F). Data are presented as mean ±SD. ***P<0.001 vs. control, #P<0.05, ##P<0.005 vs. STZ. N.S.: No significance.
INS-1 rat insulinoma pancreas beta cells were cultured in RPMI-1640 medium (Welgene, Gyeongsangbuk-do, Republic of Korea) containing 10% fetal bovine serum (Tissue Culture Biologicals, Long Beach, Calif., USA), 50 μM β-mercaptoethanol, 100 units/mL penicillin, and 100 μg/mL streptomycin (Antibiotic-Antimycotic Solution, Welgene). The cells were grown in a humidified atmosphere with 5% CO2 at 37° C. Chemicals and reagents
Cells were collected by trypsinization and washed with ice-cold PBS. For cell apoptosis analyses, INS-1 cells were incubated with annexin V (BD Biosciences, Franklin Lakes, N.J., USA) for 10 min at room temperature, and stained with 7-AAD (BD Biosciences). For intracellular reactive oxygen species (ROS) analyses, cells were incubated with 2 μM of DCFH-DA (2′,7′-dichlorodihydrofluorescein diacetate, Invitrogen, Carlsbad, Calif., USA) for 30 min at 37° C. The analysis was performed using a BD FACS Verse flow cytometer (BD Biosciences).

GLUT2 = test: Plasma membrane GLUT2 expression in high glucose-treated INS-1 cells, western blotting of membrane fractions; assay type: cell-based, rat; conditions: pre-treated with 100 pg/mL of PLAG for 1 h, then 30 mM HG for indicated times
Protocol: To investigate the effect of PLAG on GLUT2 plasma membrane localization, membrane proteins were fractionated and analyzed by western blotting. INS-1 cells were pre-treated with 100 pg/mL of PLAG for lh, and then treated with 30 mM of HG for indicating times.
For membrane protein fractionation, we performed using the MemPER™ Plus Kit (Thermo Scientific, Waltham, Mass., USA) following the manufacturer's instructions. Proteins were separated on 12% sodium dodecyl sulfate-polyacrylamide gels and transferred to polyvinylidene difluoride membranes (EMD Millipore, Darmstadt, Germany) The membranes were blocked and incubated with primary antibodies to GLUT2 (bs-0351r, Bioss, Woburn, Mass., USA) and N+-K+ ATPase (#3010S, Cell Signaling Technology, Danvers, Mass., USA). After three washes in PBST, membranes were incubated with HRP-conjugated secondary antibodies (Enzo Life Sciences, Farmingdale, N.Y., USA) for 1 h at room temperature. Protein bands were detected using ECL reagent (Thermo Scientific) and then visualized on films.

CCCCC/C=C\C/C=C\CCCCCCCC(=O)OC(COC(C)=O)COC(=O)CCCCCCCCCCCCCCC (racemic) [PLAG, 1-palmitoyl-2-linoleoyl-3-acetyl-rac-glycerol]
apoptosis (INS-1 cells; 10 μg/mL of PLAG): ~50% | apoptosis (INS-1 cells; 100 μg/mL PLAG): ~30% | decrease of cell apoptosis, PLAG vs PLH (INS-1 cells; Example 8): more effective than PLH | GLUT2 expression in plasma membrane (time course) (GLUT2): gradually decreased until 15 min, then recovered and returned to control levels at 60 min; also recorded: gradually decreased until 15min and then recovered and returned to control levels at 60 min
